# From PMC6030077, “Dual role of HDAC10 in lysosomal exocytosis and DNA repair promotes neuroblastoma chemoresistance” (Scientific Reports, 2018)
# Entries after “also recorded” stand apart in the source; their conditions may differ.
# Columns and labels:
# BE(2)-C cells [1] = assay: Flow cytometric analysis of LysoTracker DND-99 staining (lysosomal accumulation); type: cell-based, human; details: for lysosomal accumulation (LysoTracker staining): 24 h, bufexamac 30 µM, tubastatin A 7.5 µM, tubacin 7.5 µM, VPA 1 mM, vacuolin-1 10 µM
# Description: Six days after siRNA transfection or 24 h after treatment with HDAC or lysosomal inhibitors, cells were stained for 1 h with 50 nM LysoTracker® Red DND-99 in medium under standard cell culture conditions. Cells were washed with ice-cold RPMI w/o phenol-red and detached using Trypsin/EDTA for 3 minutes at 37 °C. Cells were centrifuged, resuspended in RPMI w/o phenol red and LysoTracker® Red fluorescence was quantified on a BD FACSCanto II platform using the PE filter setting.
# BE(2)-C cells [2] = assay: Flow cytometric analysis of cell surface LAMP-1 (lysosomal exocytosis); type: cell-based, human; details: 6 h tubastatin A 7.5 µM, bufexamac 30 µM, tubacin 7.5 µM, vacuolin-1 10 µM 1 h
# Description: (§1) Cells were dissociated from dishes using non-enzymatic cell dissociation reagent for five minutes. Cells were counted using a ViCell XR automatic cell counter (Beckmann Coulter) and 2.5 ∗ 10^5 cells were transferred into a pre-cooled 96-well round bottom plate (TPP92097). Cells were stained for 1.5–2 hours on ice with primary anti P-gp (Biozol ABA-AB00143-1.1), LAMP-1 (H4A3, DHSB) antibody or isotype control (DLN-05794, Dianova, Barcelona, Spain) and for 1 hour with APC-labeled secondary antibody (Dianova 115-136-068). Cells were washed three times in FACS buffer (5% FBS in PBS) after each antibody incubation step. For evaluation of DNA double-strand breaks, cells were detached from dishes using trypsin, counted using a ViCell XR automatic cell counter (Beckmann Coulter) and transferred into a pre-cooled 96-well round bottom plate (4 ∗ 10^6 cells/well). Cells were fixed and permeabilized using the eBioscience^TM Foxp3/Transcription Factor Staining Buffer Set (Thermo Fisher Scientific). Cells were stained for 1.5 h with Phospho-Histone H2A.X (S139) primary antibody (CST #9718) and for 1 h in Alexa-488-labeled secondary antibody (ThermoFisher A-11008). Cells were washed three times in 1× permeabilization buffer after each antibody incubation step and fluorescence was quantified on a BD FACSCanto II platform.
# P-glycoprotein = assay: Flow cytometric quantification of cell surface P-gp expression; type: cell-based, human; details: BE(2)-C; 6 h tubastatin A 7.5 µM; vacuolin-1 10 µM 1 h
# Description: as §1
# BE(2)-C cells [3] = assay: Flow cytometric analysis of γH2A.X staining (DNA double-strand breaks); type: cell-based, human; details: 24 h, tubastatin A 7.5 µM, vacuolin-1 10 µM; for DSBs (γH2A.X), treatment alone in the absence of doxorubicin: verapamil 10 µM
# Description: as §1, with “Cells were stained for 1.5–2 hours on ice with primary anti P-gp (Biozol ABA-AB00143-1.1), LAMP-1 (H4A3, DHSB) antibody or isotype control (DLN-05794, Dianova, Barcelona, Spain) and for 1 hour with APC-labeled secondary antibody (Dianova 115-136-068).” left out, “Cells were stained for 1.5 h with Phospho-Histone H2A.X (S139) primary antibody (CST #9718) and for 1 h in Alexa-488-labeled secondary antibody (ThermoFisher A-11008).” left out
# [4] = test system: proliferating human fibroblasts; assay: Flow cytometric analysis of cellular doxorubicin fluorescence, fibroblasts; type: cell-based; details: 100 ng/ml doxorubicin 48 h; tubastatin A 7.5 µM, vacuolin-1 10 µM, verapamil 10 µM
# BE(2)-C cells [5] = assay: Cell viability, automated trypan blue exclusion, BE(2)-C; type: cell-based, human; details: 100 ng/ml doxorubicin; for viability of BE(2)-C cells, single treatment: 7.5 µM tubastatin A or vacuolin-1 alone; for viability of BE(2)-C cells, combination with doxorubicin, 24 h, compared to doxorubicin alone: 10 µM verapamil or vacuolin-1
# Description: Adherent cell lines were trypsinized and cells were pooled with corresponding supernatant, centrifuged and resuspended in 1.5 ml cell culture media. Cell viability was measured by automated trypan blue staining with the Vi-Cell XR Cell Viability Analyzer from Beckman Coulter (Krefeld, Germany).
# BE(2)-C cells [6] = assay: Pulse-chase analysis of doxorubicin secretion/retention; type: cell-based, human; details: 12 h pre-treatment, 1 µg/ml doxorubicin 3 h, washout, relative to t0
# Description: To test whether HDAC10 inhibition prolonged the retention of doxorubicin, we used a pulse-chase approach in which BE(2)-C cells were pre-treated over night with HDAC6/10 inhibitors and then loaded with high concentrations of doxorubicin for 3 h (1 µg/ml). After doxorubicin washout, HDAC6/10 or HDAC6 inhibitors were re-added (t0), and intracellular doxorubicin fluorescence was measured at t0, as well as 3 h (t3h) and 6 h (t6h) after doxorubicin removal (Fig. 5h–k). […] In summary, secretion of doxorubicin was slowed down in case of HDAC6/10 inhibition but not by specific HDAC6 inhibition alone.
# (§2) For flow cytometric quantification of intracellular doxorubicin after HDAC6/10 inhibition, BE(2)-C, SK-N-AS, IMR-32, HAP1 wild type and HDAC10 knockout cells were seeded in 6-well dishes at a density of 1.5 ∗ 10^5 cells/well (BE(2)-C and SK-N-AS, HAP1) and 3 ∗ 10^5 cells/well (IMR-32). Cells were treated with 25 ng/ml, 50 ng/ml, 100 ng/ml or 1 µg/ml doxorubicin, respectively, for 3–48 h (see respective figure legend). Where indicated, cells were co-treated with HDAC6/10 or lysosomal inhibitors. In case of co-treatment with vacuolin-1, vacuolin-1 was directly added to cells under doxorubicin treatment 1 h or 24 h prior to analysis. Flow cytometric quantification of intracellular doxorubicin after HDAC6, HDAC10 or P-glycoprotein knockdown in BE(2)-C cells was performed 5 days (P-glycoprotein) or 6 days (HDAC6/10) after transfection with siRNA. To that end, cells were seeded 3–4 days after transfection into 6-well dishes at 1.5 ∗ 10^5 cells per well and treated with 100 ng/ml doxorubicin +/− HDAC6/10 and lysosomal inhibitors for the last 24 h. After doxorubicin treatment, BE(2)-C, SK-N-AS, IMR-32 and HAP1 cells were washed with ice-cold RPMI w/o phenol-red and detached using Trypsin/EDTA for 3 minutes at 37 °C. Cells were centrifuged, resuspended in RPMI w/o phenol red and doxorubicin fluorescence was quantified on a BD FACSCanto II platform using the PE filter setting.
# BE(2)-C cells [7] = assay: Flow cytometric quantification of intracellular doxorubicin accumulation, BE(2)-C; type: cell-based, human; details: for intracellular doxorubicin after co-treatment: 48 h, bufexamac 30 µM, tubastatin A 7.5 µM, tubacin 7.5 µM
# Description: as §2
# HDACs 1–3 = assay: Western blot analysis of histone H3 acetylation; type: cell-based, human; details: 1 mM, 6 h
# Description: Western blot analysis was performed as previously described. […] (b) Western blot analysis of histone H3 […] class IIb HDAC inhibitor tubastatin A, respectively. Numbers below blot indicate histone H3 acetylation normalized to total histone H3 expression and relative to DMSO treated control. Bands of indicated proteins were developed on the same blot. (c) Flow cytometric analysis of LysoTracker DND-99 staining in BE(2)-C cells 24h after treatment with class I HDAC inhibitor VPA and class IIb HDAC inhibitor tubastatin A. Statistical analyses were performed on non-normalized data using paired, two-tailed t-test (***p < 0.001; **0.001 ≤ p < 0.01; *0.01 ≤ p < 0.05). Error bars represent SEM. 3 (1 picture or pasted object on this page, not shown here)
# HDAC6 = assay: Western blot analysis of tubulin K40 acetylation as a marker for HDAC6 inhibition; type: cell-based, human; details: 24 h; bufexamac 30 µM, tubastatin A 7.5 µM, tubacin 7.5 µM
# Description: Western blot analysis was performed as previously described. The following antibodies were used: anti-HDAC6 (sc-11420, Santa Cruz), anti-HDAC10 (H3413, Sigma), anti-acetylated histone H3 (06-911, Merck Millipore), anti-histone H3 (9715, Cell Signaling Technology, Cambridge UK), anti-LAMP-1 (H4A3, DHSB, Iowa City, IA, USA), anti-LAMP-2 (H4B4; Santa Cruz Biotechnology), anti-acetylated tubulin (6–11B-1; Sigma), anti-tubulin (2148, Cell Signaling Technology), anti P-glycoprotein (13978 S, Cell Signaling Technology) and anti-β-actin (clone AC-15; Sigma).
# BE(2)-C cells [8] = assay: Alkaline single cell gel electrophoresis assay (comet assay); type: cell-based, human; details: 18 h, tubastatin A 7.5 µM or doxorubicin 100 ng/ml
# Description: BE(2)-C cells were treated with the HDAC6/10 inhibitor tubastatin A alone or in combination with the genotoxic drug doxorubicin (100 ng/ml doxorubicin, 7.5 µM tubastatin) for 18 h. Untreated cell aliquots and cells irradiated with 5 Gy (^137Cs radiation source, dose rate of 1 Gy min^−1) were used as negative and positive controls, respectively. Cells were subsequently analyzed by the alkaline comet assay as previously described[68],[69] with some modifications. In brief, the cells were mixed with 0.7% low-melting temperature agarose (Biozym), plated on two-well slides (Trevigen), and subsequently lysed overnight. Single cell electrophoresis was performed at 4 °C. Analysis of DNA damage was accomplished by fluorescence microscopy using a fully automated cell scanning system Metafer-4 (Metasystems) as described in[70]. DNA damage was assessed as “Tail DNA in %”. Statistical evaluation of two differently treated cell aliquots was performed with the Mann Whitney test using GraphPad Prism version 5.04 for Windows.
smiles,measurement,setting,value
Ic1cccc(/C=N/Nc2nc(N3CCOCC3)nc(N(c3ccccc3)c3ccccc3)n2)c1 [vacuolin-1],lysosomal accumulation (LysoTracker staining),BE(2)-C cells [1],increased LysoTracker staining
same,cell surface LAMP-1 levels,BE(2)-C cells [2],robustly reduced surface LAMP-1
same,cell surface P-gp levels,P-glycoprotein,slightly increased surface P-gp levels
same,"DSBs (γH2A.X), co-treatment with doxorubicin compared to doxorubicin alone",BE(2)-C cells [3]; 100 ng/ml doxorubicin,increased doxorubicin induced DSBs
same,"DSBs (γH2A.X), treatment alone in the absence of doxorubicin",BE(2)-C cells [3],did not induce DSBs on its own
same,intracellular doxorubicin in fibroblasts,[4],did not exhibit strongly increased intracellular doxorubicin
same,"viability of BE(2)-C cells, single treatment",BE(2)-C cells [5],no substantial effect
same,"viability of BE(2)-C cells, combination with doxorubicin, 24 h, compared to doxorubicin alone",BE(2)-C cells [5],strongly reduced cell viability
same,retention of intracellular doxorubicin 3 h and 6 h after doxorubicin removal,BE(2)-C cells [6],retained higher levels of intracellular doxorubicin
same,doxorubicin accumulation with lysosomal exocytosis inhibitor,"BE(2)-C cells [7]; 100 ng/ml doxorubicin 48 h, 10 µM vacuolin-1",promoted doxorubicin accumulation
"CCCC(CCC)C(=O)O [VPA, valproic acid]",lysosomal accumulation (LysoTracker staining),BE(2)-C cells [1],did not induce lysosomal accumulation
same,inhibition of HDACs 1–3 (histone H3 acetylation),HDACs 1–3,substantially inhibiting HDACs 1–3
O=C(CCCCCCC(=O)Nc1ccc([C@H]2O[C@@H](CSc3nc(-c4ccccc4)c(-c4ccccc4)o3)C[C@@H](c3ccc(CO)cc3)O2)cc1)NO [tubacin],lysosomal accumulation (LysoTracker staining),BE(2)-C cells [1],did not
same,HDAC6 inhibition (tubulin K40 acetylation),HDAC6,substantially inhibited HDAC6
same,retention of intracellular doxorubicin 3 h and 6 h after doxorubicin removal,BE(2)-C cells [6],had no effect
same,intracellular doxorubicin after co-treatment,BE(2)-C cells [7]; 100 ng/ml doxorubicin,did not alter cellular doxorubicin content
CCCCOc1ccc(CC(=O)NO)cc1 [bufexamac],lysosomal accumulation (LysoTracker staining),BE(2)-C cells [1],caused lysosomal accumulation
same,cell surface LAMP-1 levels,BE(2)-C cells [2],reduced surface LAMP-1 levels
same,HDAC6 inhibition (tubulin K40 acetylation),HDAC6,substantially inhibited HDAC6; also recorded: lowest potency against HDAC6
same,retention of intracellular doxorubicin 3 h and 6 h after doxorubicin removal,BE(2)-C cells [6],retained higher levels of intracellular doxorubicin
same,intracellular doxorubicin after co-treatment,BE(2)-C cells [7]; 100 ng/ml doxorubicin,increased intracellular doxorubicin
same,"intracellular doxorubicin levels, short-term","BE(2)-C cells [7]; 12 h pre-treatment with inhibitor, then 1 µg/ml doxorubicin for 3 h",increased intracellular doxorubicin levels
COc1cccc2c1C(=O)c1c(O)c3c(c(O)c1C2=O)C[C@@](O)(C(=O)CO)C[C@@H]3O[C@H]1C[C@H](N)[C@H](O)[C@H](C)O1 [doxorubicin],"viability of BE(2)-C cells, single treatment",BE(2)-C cells [5],did not substantially reduce cell viability
same,"DSBs in comet assays, single treatment",BE(2)-C cells [8],increased DSBs only trend-wise
COc1ccc(CCN(C)CCCC(C#N)(c2ccc(OC)c(OC)c2)C(C)C)cc1OC (centres unmarked) [verapamil],"DSBs (γH2A.X), treatment alone in the absence of doxorubicin",BE(2)-C cells [3],did not induce DSBs
same,intracellular doxorubicin in fibroblasts,[4],strongly increase doxorubicin accumulation
same,"viability of BE(2)-C cells, combination with doxorubicin, 48 h, compared to doxorubicin alone",BE(2)-C cells [5]; 10 µM verapamil,not significant
same,"viability of BE(2)-C cells, combination with doxorubicin, 24 h, compared to doxorubicin alone",BE(2)-C cells [5],only slightly reduced cell viability
same,basal levels of doxorubicin in cells,"BE(2)-C cells [7]; 100 ng/ml doxorubicin 24 h, 10 µM verapamil",increased the basal levels of doxorubicin
CN(C)Cc1c(C(=O)NCCOc2ccc(C(=O)NO)cc2)oc2ccccc12 [abexinostat],concentrations at which lysosomal accumulation is induced,BE(2)-C cells [1]; 24 h treatment,≥ 100 nM
same,EC50,"BE(2)-C cells [1]; Homo sapiens, 24 h treatment, read-out: LysoTracker staining (lysosomal accumulation) EC50",183 nM
same,concentrations at which intracellular doxorubicin amounts are increased,"BE(2)-C cells [7]; 100 ng/ml doxorubicin, 24 h co-treatment",greater than or equal to 500 nM
